Test results taken from ChEMBL document CHEMBL3988442, “University of Dundee, Small-Polar-MMV Screening Library” (2021).
pIC50: −log10 of the molar value. Values joined by “and” are separate entries in the source; they are usually repeats but may differ in a detail not shown here. Identical values can stand only once.

What was measured:
[1] = molecular target: T1, Histidine--tRNA ligase (Leishmania infantum, UniProt A4I591); assay: Leishmania infantum Histidine tRNA synthetase (LdHisRS); format: functional
T1 sequence (A4I591 whole entry): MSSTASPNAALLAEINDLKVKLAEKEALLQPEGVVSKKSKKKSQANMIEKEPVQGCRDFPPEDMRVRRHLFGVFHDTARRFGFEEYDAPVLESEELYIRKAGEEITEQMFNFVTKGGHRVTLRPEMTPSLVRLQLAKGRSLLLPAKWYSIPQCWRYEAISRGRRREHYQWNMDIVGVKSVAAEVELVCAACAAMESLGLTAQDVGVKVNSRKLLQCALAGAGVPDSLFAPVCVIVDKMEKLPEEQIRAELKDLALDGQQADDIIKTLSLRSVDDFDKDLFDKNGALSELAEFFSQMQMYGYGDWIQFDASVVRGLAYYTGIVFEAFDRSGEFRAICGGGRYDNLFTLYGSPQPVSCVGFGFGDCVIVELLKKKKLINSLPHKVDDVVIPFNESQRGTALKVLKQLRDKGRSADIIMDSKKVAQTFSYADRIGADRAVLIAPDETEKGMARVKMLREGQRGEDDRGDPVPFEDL

[2] = In vitro enzyme assay to detect hydrolysis of chlorophenol red-beta-D-[…] directly proportional to the number of Toxoplasma stably expressing beta-galactosidase; format: functional, organism-based, Toxoplasma gondii; settings: Toxoplasma gondii
[3] = molecular target: Tryptophan--tRNA ligase (Mycobacterium tuberculosis (strain ATCC 25618 / H37Rv), UniProt P9WFT3); assay: Biochemical assay for Mt-TrpRS; format: functional
Sequence of Tryptophan--tRNA ligase (P9WFT3 whole entry): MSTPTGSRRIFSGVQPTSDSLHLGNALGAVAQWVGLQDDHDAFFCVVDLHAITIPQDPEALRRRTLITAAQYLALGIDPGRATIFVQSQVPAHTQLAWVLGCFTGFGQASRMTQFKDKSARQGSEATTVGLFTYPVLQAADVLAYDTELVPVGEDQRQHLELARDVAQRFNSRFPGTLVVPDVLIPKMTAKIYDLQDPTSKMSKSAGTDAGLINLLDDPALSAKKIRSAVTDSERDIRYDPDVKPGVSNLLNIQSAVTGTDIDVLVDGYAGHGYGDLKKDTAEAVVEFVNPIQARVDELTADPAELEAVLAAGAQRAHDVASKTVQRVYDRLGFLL

[4] = test system: Schistosoma mansoni; assay: High throughput screening of compounds against Schistosoma mansoni motility; format: functional; set-up: dose or concentration left out as unconfirmed

O=c1c2ccccc2nc2n1C(CSc1ccc(Br)cc1)CN2 (stereo not given)
pIC50 [1]: < 4.00

CCC1CCc2c(c3ccccc3[nH]c2=O)O1 (stereo not given)
pIC50 [1]: < 4.00

Cc1nn(-c2ccccn2)c(C)c1[C@@H]1C=C[C@@H](NC(=O)NC(C)C)C1
pIC50 [1]: < 4.00 and 4.06

Cc1nn(CCC#N)c(C)c1[C@@H]1C=C[C@@H](NCc2cccc(Cl)c2)C1
pIC50 [1]: < 4.00

O=C(NC[C@H]1CCCC[C@H]1O)c1ccc2nc(-c3ccco3)[nH]c2c1
pIC50 [1]: 4.68 and 4.59

CCN1C(=O)C(C#N)=C(C)/C(=C/C2=Cc3ccccc3OC2)C1=O
pIC50 [1]: 5.78 and 5.75 and 5.87

O=C(Cc1cnc(-c2c(Cl)cccc2Cl)s1)N1CCOCC1
pIC50 [1]: < 4.00

Cc1nnc(SCC(=O)c2cc3c(cc2Cl)NC(=O)C3)o1
pIC50 [1]: 4.37 and 4.28

Nc1nnc(SCC(=O)c2cc3c(cc2Cl)NC(=O)C3)s1
pIC50 [1]: < 4.00 and 4.11

CC1=Nc2c(c(=O)[nH]n2C(C)C)C(c2ccc3c(c2)OCCO3)S1 (stereo not given)
pIC50 [1]: < 4.00

CC1=Nc2c(c(=O)[nH]n2C(C)C)C(c2ccc3c(c2)n(C)c(=O)n3C)S1 (stereo not given)
pIC50 [1]: < 4.00

COc1ccc(C2SC(C)=Nc3c2c(=O)[nH]n3C2CCCC2)cc1O (stereo not given)
pIC50 [1]: < 4.00

COc1ccc2c(c1)c(C(=O)Nc1nnn[nH]1)cn2C(C)C
pIC50 [1]: < 4.00

O=C(C1=NN(Cc2ccccc2)c2ccccc2S1(=O)=O)N1CCCC1
pIC50 [1]: 4.39 and 4.40

CCN(C(=O)c1nc2c(s1)CCCN2Cc1ccccc1)C(C)C
pIC50 [1]: 4.65 and 4.76

O=C(c1nc2c(s1)CCCN2CC1CC1)N1CCOCC1
pIC50 [1]: 4.72 and 4.88

COCCn1cc(-c2cc(C(=O)N3CCCC3)c3ccccn23)nc1C
pIC50 [1]: < 4.00

CN1CCCN(C(=O)c2nc3c(s2)CCCN3CC2CC2)CC1
pIC50 [1]: 4.11 and 4.26

Cc1ccc(N2CCc3sc(C(=O)N4CCOCC4)cc32)nn1
pIC50 [1]: < 4.00

CC(C)NC(=O)C1Cc2nc(-c3ccsc3)sc2N1CC1CC1 (stereo not given)
pIC50 [1]: 4.47 and 4.43

COCCN1CCCc2sc(C(=O)NCC3CCCO3)nc21 (stereo not given)
pIC50 [1]: 4.65 and 4.62

O=C(c1cnccn1)N1C[C@@H]2[C@@H](C1)OCC(=O)N2CC1CCCC1
pIC50 [1]: < 4.00

c1cc(-c2ccc3c(c2)CCC32CCN(c3nncs3)CC2)co1
pIC50 [1]: 4.90 and 4.99

c1cc(-c2ccc3c(c2)C2(CC3)CCN(c3nncs3)CC2)ccn1
pIC50 [1]: 4.53 and 4.57

Cc1nc(N2CCCC2)nc2c1CCN(C(=O)C1CCC1)CC2
pIC50 [1]: < 4.00

c1cc(-c2nnc3sc(CCN4CCCC4)nn23)ccn1
pIC50 [1]: < 4.00

Cc1c(Cl)cccc1NC(=O)Cn1cc(C(=O)O)ccc1=O
pIC50 [1]: < 4.00

O=c1c2cnc(N3CCOCC3)nc2ccn1-c1ccccc1
pIC50 [1]: < 4.00

COc1cc(CCO)c(OC)c2c1OCO2
pIC50 [1]: < 4.00

O=C1CC(c2ccc(C(=O)O)cc2)c2ncn(-c3ccc(Cl)cc3)c2N1 (stereo not given)
pIC50 [1]: 4.80 and 4.91

O=C1CC(c2ccc(C(=O)O)cc2)c2ncn(-c3ccccc3F)c2N1 (stereo not given)
pIC50 [1]: 4.72 and 4.60

O=C1CC(c2ccc(C(=O)O)cc2)c2ncn(-c3ccc(F)cc3)c2N1 (stereo not given)
pIC50 [1]: 4.83 and 4.66

O=C1CC(c2ccc(C(=O)O)cc2)c2ncn(-c3cccc(Cl)c3)c2N1 (stereo not given)
pIC50 [1]: 4.68 and 4.58

Cc1cs/c(=N/C(=O)c2csc(NCC(C)C)n2)[nH]1
pIC50 [1]: 4.54 and 4.33

O=C1CC(c2ccc(C(=O)O)cc2)c2ncn(-c3ccccc3)c2N1 (stereo not given)
pIC50 [1]: 4.76 and 4.70

Cc1cc2nc(SCC(=O)N3CCCC3)n(-c3ccccc3)c(=O)c2[nH]1
pIC50 [1]: 4.09 and < 4.00

O=C(CCn1ccc2cc(Br)ccc21)NCc1ccc(C(=O)O)cc1
pIC50 [1]: < 4.00 and 4.17

Cc1ccc(CN2C(=O)CCC2C(=O)Nc2cnn(C)c2)o1 (stereo not given)
pIC50 [1]: < 4.00 and 4.05

COCCNc1nnc(-c2ccc(C)nc2)s1
pIC50 [2]: < 4.30 | pIC50 [3]: < 3.71

Cc1cc(C(=O)NCC(F)(F)F)c2c(C3CCCN3)noc2n1 (stereo not given)
pIC50 [1]: 4.42 and 4.15

CCOc1ccc(N(CCC#N)C(=O)c2ccnc(SC)c2)cc1
pIC50 [1]: < 4.00

COc1cc(CC(=O)Nc2cccc(C(=O)N(C)C)n2)ccc1C
pIC50 [1]: 4.61 and 4.43

O=C(Nc1c(N2CCCC2)cccc1N1CCCC1)c1ccccn1
pIC50 [1]: 4.49 and 4.57

COc1ccc2c(c1)CC(NCc1cccc(OCC(N)=O)c1)CC2 (stereo not given)
pIC50 [1]: 4.77 and 4.63

Cc1nnc2n1CCN(C(=O)c1ccc(Cn3cccc3)cc1)C2
pIC50 [1]: 4.29 and 4.36

CCCn1nc2c(cc1=O)CN(CC1CCCCO1)CC2 (stereo not given)
pIC50 [1]: 4.47 and 4.37

CC(=O)N1CCN(c2ccccc2CNc2ccc3[nH]ncc3c2)CC1
pIC50 [1]: < 4.00 and 4.12

CC(C)C(C)NC(=O)Nc1cccn(C)c1=O (stereo not given)
pIC50 [1]: 4.18 and 4.27

Cc1nnc(NCCc2coc(-c3ccc(F)cc3)n2)c(C#N)c1C
pIC50 [1]: < 4.00 and 4.25

Cc1nnc(NCCc2coc(-c3ccccc3)n2)c(C#N)c1C
pIC50 [1]: 4.13 and 4.25

O=C(CCNCc1cccc(O)c1)N1CCc2sccc2C1
pIC50 [1]: 4.75 and 4.64

Cc1nnc(N2CCc3cnc(C(C)C)nc3C2)c(C#N)c1C
pIC50 [1]: < 4.00

COc1ccc(C(C)=O)cc1CN1CCn2cccc2C1C (stereo not given)
pIC50 [1]: 4.50 and 4.30

CN(CCOc1ccccc1)C(=O)Nc1cccn(C)c1=O
pIC50 [1]: 4.82 and 4.81

Cc1ccn(C)c(=O)c1NC(=O)N(C)Cc1cccc(OC(C)C)c1
pIC50 [1]: 4.74 and 4.67

CCC(C#N)NC(=O)CCCOc1cccc(C(C)=O)c1 (stereo not given)
pIC50 [1]: < 4.00

Cn1cccc(NC(=O)NCCc2cccc(O)c2)c1=O
pIC50 [1]: 4.81 and 4.89

Cn1cccc(NC(=O)NCc2cccc(CO)c2)c1=O
pIC50 [1]: < 4.00

Cc1cn2nc(N(C)C3CCCN(c4cccnn4)C3)sc2n1 (stereo not given)
pIC50 [1]: 4.53 and 4.36

Cn1nc2c(cc1=O)CN(c1nc3ccccc3s1)CC2
pIC50 [1]: 4.14 and 4.09

CCn1nc2c(cc1=O)CN(c1nc3ccccc3s1)CC2
pIC50 [1]: 4.20 and 4.13

Cc1ccccc1CC(C)(C)NC(=O)c1cccc(OCC(N)=O)c1
pIC50 [1]: 4.11 and < 4.00

Cc1csc(CN(C)C(C)C(=O)N2CCc3ccccc3C2)n1 (stereo not given)
pIC50 [1]: < 4.00

NC(=O)CN1CCN(CC2CC2)c2ccccc21
pIC50 [1]: < 4.00

NC(=O)NC(=O)CCN1CCN(CC2CC2)c2ccccc21
pIC50 [1]: < 4.00

Cc1nnc(NCC(c2ccco2)N(C)C)c(C#N)c1C (stereo not given)
pIC50 [1]: 4.61 and 4.62

Cn1cc(NC(=O)N2CCN(Cc3cscn3)CC2)ccc1=O
pIC50 [1]: 5.07

CCCn1nc2c(cc1=O)CN(Cc1ccccn1)CC2
pIC50 [1]: 4.68 and 4.75

CCCn1nc2c(cc1=O)CN(Cc1cc(C)no1)CC2
pIC50 [1]: 4.61 and 4.56

CN(C)CCn1c(=O)oc2ccc(NC(=O)N3CCCCCC3)cc21
pIC50 [1]: < 4.00

CC(C)c1cc(NC(=O)CN2CCc3nn(C)c(=O)cc3C2)on1
pIC50 [1]: < 4.00

Cc1cc(NC(=O)CN2CCc3nn(C)c(=O)cc3C2)no1
pIC50 [1]: < 4.00

Cn1nc2c(cc1=O)CN(CC(=O)Nc1cc(C(C)(C)C)no1)CC2
pIC50 [1]: < 4.00

Cn1nc2c(cc1=O)CN(CC(=O)Nc1nccs1)CC2
pIC50 [1]: < 4.00

NC(=O)c1ccc(N2CCCCC2)c(NC(=O)c2ccc(F)cc2Cl)c1
pIC50 [1]: 4.14 and 4.28

NC(=O)c1ccc(N2CCCCC2)c(NC(=O)c2cc(Br)ccc2Cl)c1
pIC50 [1]: 4.52 and 4.53

OCCNc1nccc(-c2c[nH]nc2-c2ccco2)n1
pIC50 [2]: < 4.30 | pIC50 [3]: < 3.71

O=C(c1ccc[nH]1)N1CCN(CC2CCOc3ccccc3C2)CC1 (stereo not given)
pIC50 [3]: < 3.71 | Percent Effect [4]: -5.036%

O=C(CCc1cc(O)no1)N1CCCC(COc2ccc(F)cc2)C1 (stereo not given)
pIC50 [3]: < 3.71 | Percent Effect [4]: 28.51%

O=C1CC2(CCN(CC3CCOC3)CC2)CN1Cc1cc(F)cc(F)c1 (stereo not given)
pIC50 [3]: < 3.71 | Percent Effect [4]: -23.28%

CC(=O)N1CCN(CC2CCOc3ccccc3C2)CC1 (stereo not given)
pIC50 [3]: < 3.71 | Percent Effect [4]: -45.54%

NC(=O)C1CCN(C(=O)CCn2ccc3cc(Br)ccc32)CC1
pIC50 [3]: < 3.71 | Percent Effect [4]: -11.99%

Nc1cccnc1N1CCCCCC1
pIC50 [1]: 4.79 and 4.76

Cn1ccnc1Sc1ccc(N)cn1
pIC50 [1]: < 4.00

COCCN1CCCn2cnc(CNC3CCCC3)c2C1
pIC50 [1]: 5.04 and 4.89

Cc1cc(C(=O)N2CC[C@@H](N(C)C)[C@@H]2Cc2ccccc2)no1
pIC50 [1]: < 4.00

O=C(C1CCCCC1)N1C[C@@H]2CCN(c3cnccn3)C[C@@H]2C1
pIC50 [1]: 4.17 and 4.15

CCc1ccc2c(C3CN(CC4CCC4)C3)ncn2c1
pIC50 [1]: 4.80 and 4.73

O=C(c1ccc2[nH]ccc2c1)N1Cc2nc(CN3CCCCC3)oc2C1
pIC50 [1]: 4.47 and 4.63

Fc1ccc(N2CCC3(CC2)CC(OCc2cccnc2)CO3)cc1 (stereo not given)
pIC50 [1]: 4.63 and 4.80

CC(=O)NCC(=O)N1Cc2nccn2CC(COc2cccnc2)C1 (stereo not given)
pIC50 [1]: < 4.00

Cc1ccc(CNC(=O)c2nc3c(o2)CN(C(=O)c2cccnc2)C3)o1
pIC50 [1]: 4.43 and 4.26

O=C(NCc1ccco1)[C@@H]1CC[C@@H]2[C@@H](CCN2Cc2ccc(F)cc2)O1
pIC50 [1]: 4.23 and 4.56
